Among the data in US20250340529A1, “Heterocyclic Compounds as Immunomodulators of PD-L1 Interactions” (Ascletis BioScience Co., Ltd, priority 2021, published 2025) are IC50 values, retold here.

The target of the assay is PD-1/PD-L1 (Homo sapiens (Human), UniProt Q9NZQ7). Put plainly: PD-1/PD-L1 Homogeneous Time-Resolved Fluorescence (HTRF) binding assay. Conditions: 3 nM PD1, 10 nM PD-L1, 25° C., PBS pH 7.4. The protocol:
PD-1/PD-L1 Homogeneous Time-Resolved Fluorescence (HTRF) Binding Assay
The assays were conducted in a standard black 384-well polystyrene plate with a final volume of 20 μL. Inhibitors were first serially diluted in DMSO and then added to the plate wells before the addition of other reaction components. The final concentration of DMSO in the assay was 1%. The assays were carried out at 25° C. in the PBS buffer (pH 7.4) with 0.05% Tween-20 and 0.1% BSA. Recombinant human PD-L1 protein (19-238) with a Histag at the C-terminus was purchased from AcroBiosystems (PD1-H5229). Recombinant human PD-1 protein (25-167) with Fe tag at the C-terminus was also purchased from AcroBiosystems (PD1-H5257). PD-L1 and PD-1 proteins were diluted in the assay buffer and 10 μL was added to the plate well. Plates were centrifuged and proteins were preincubated with inhibitors for 40 minutes. The incubation was followed by the addition of 10 μL of HTRF detection buffer supplemented with Europium cryptate-labeled anti-human IgG (PerkinElmer-AD0212) specific for Fe and anti-His antibody conjugated to SureLight®-Allophycocyanin (APC, PerkinElmer-AD0059H). After centrifugation, the plate was incubated at 25° C. for 60 min. before reading on a PHERAstar FS plate reader (665 nm/620 nm ratio). Final concentrations in the assay were—3 nM PD1, 10 nM PD-L1, 1 nM europium anti-human IgG and 20 nM anti-His-Allophycocyanin. IC50 determination was performed by fitting the curve of percent control activity versus the log of the inhibitor concentration.

Sequence of PD-1/PD-L1 (Q9NZQ7 19-238): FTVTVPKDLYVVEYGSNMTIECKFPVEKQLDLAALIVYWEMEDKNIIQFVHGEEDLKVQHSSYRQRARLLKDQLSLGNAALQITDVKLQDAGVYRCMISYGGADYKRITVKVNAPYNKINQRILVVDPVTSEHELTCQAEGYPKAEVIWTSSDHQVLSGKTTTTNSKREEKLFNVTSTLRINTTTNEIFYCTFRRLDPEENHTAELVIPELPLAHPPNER

On to `O=C1COc2cc(-c3cccc(-c4cccc(-c5ccc6c(c5)OCC(=O)N6Cc5ncc[nH]5)c4Cl)c3Cl)ccc2N1Cc1ncc[nH]1` [Compound 415], for which the IC50 turned out to be 104 nM.

As for `O=C(O)C1CCC(=O)N1CCN1C(=O)COc2cc(-c3cccc(-c4cccc(-c5ccc6c(c5)OCC(=O)N6CCN5C(=O)CCC5C(=O)O)c4Cl)c3Cl)ccc21` (stereo not shown) [Compound 573], the IC50 amounted to 287 nM.

`Cc1c(-c2ccc3c(c2)OCC(=O)N3CCN2C[C@H](O)C[C@H]2C(=O)O)cccc1-c1cccc(-c2ccc3c(c2)OCC(=O)N3CCN2C[C@H](O)C[C@H]2C(=O)O)c1C` [Compound 514] registered an IC50 of 4.46 nM.

Regarding `O=C1CC[C@@H](CN2CCCc3cc(-c4cccc(-c5cccc(-c6ccc7c(c6)CCCN7C[C@@H]6CCC(=O)N6)c5Cl)c4Cl)ccc32)N1` [Compound 303], the 50% inhibitory concentration (IC50) was found to be 187 nM.

Regarding `O=C1CC[C@@H](CN2C(=O)CCc3cc(-c4cccc(-c5cccc(-c6ccc7c(c6)CCC(=O)N7C[C@@H]6CCC(=O)N6)c5Cl)c4Cl)ccc32)N1` [Compound 281, 6,6′-(2,2′-dichloro-[1,1′-biphenyl]-3,3′-diyl)bis(1-(((S)-5-oxopyrrolidin-2-yl)methyl)-3,4-dihydroquinolin-2(1H)-one)], the IC50 worked out at 26.7 nM.

As to `O=C1COc2cc(-c3cccc(-c4cccc(-c5ccc6c(c5)OCC(=O)N6C[C@@H]5CCC(=O)N5)c4Cl)c3Cl)ccc2N1` [Compound 429, (S)-7-(2,2′-dichloro-3′-(3-oxo-3,4-dihydro-2H-benzo[b][1,4]oxazin-7-yl)-[1,1′-biphenyl]-3-yl)-4-((5-oxopyrrolidin-2-yl)methyl)-2H-benzo[b][1,4]oxazin-3(4H)-one], the IC50 was determined as 20.8 nM.

The molecule `CC(C)(C)OC[C@H](NCCN1C(=O)COc2cc(-c3cccc(-c4cccc(-c5ccc6c(c5)OCC(=O)N6CCN[C@@H](COC(C)(C)C)C(=O)O)c4Cl)c3Cl)ccc21)C(=O)O` [Compound 571] had a half-maximal inhibitory concentration (IC50) of 16 nM.

For `O=C1CC[C@H](CN2C(=O)COc3cc(-c4cccc(-c5cccc(-c6ccc7c(c6)OCC(=O)N7C[C@H]6CCC(=O)N6)c5Cl)c4Cl)ccc32)N1` [Compound 448], the IC50 turned out to be 5.45 nM.

For `CC1(C)Cc2cc(-c3cccc(-c4cccc(-c5cnc6c(c5)OC(C)(C)C(=O)N6C[C@@H]5CCC(=O)N5)c4Cl)c3Cl)cnc2N(C[C@@H]2CCC(=O)N2)C1=O` [Compound 382], the IC50 was no less than 3000 nM.

In the case of `COC(=O)N[C@H](C(=O)N1CCC[C@H]1CN1C(=O)COc2cc(-c3cccc(-c4cccc(-c5ccc6c(c5)OCC(=O)N6C[C@@H]5CCCN5C(=O)[C@@H](NC(=O)OC)C(C)C)c4Cl)c3Cl)ccc21)C(C)C` [Compound 422], the IC50 was no less than 3000 nM.

Consider `O=C(O)[C@H]1C[C@@H](O)CN1CCN1C(=O)COc2cc(-c3cccc(-c4cccc(-c5ccc6c(c5)OCC(=O)N6CCN5C[C@H](O)C[C@@H]5C(=O)O)c4Cl)c3Cl)ccc21` [Compound 484], for which the IC50 was found to be 6.53 nM.

`O=C1COc2cc(-c3cccc(-c4cccc(-c5ccc6c(c5)OCC(=O)N6CCn5cncn5)c4Cl)c3Cl)ccc2N1CCn1cncn1` [Compound 374] returned a half-inhibitory concentration (IC50) of 68.2 nM.

Molecule `Nc1cc2c(cc1-c1cccc(-c3cccc(-c4cc5c(cc4N)N(C[C@@H]4CCC(=O)N4)C(=O)CO5)c3Cl)c1Cl)OCC(=O)N2C[C@@H]1CCC(=O)N1` [Compound 354] had an IC50 of 2180 nM.

For the molecule `O=C1COc2cc(-c3cccc(-c4cccc(-c5ccc6c(c5)OCC(=O)N6C[C@@H]5CCCN5)c4Cl)c3Cl)ccc2N1CCN1CC[C@H](O)C1` [Compound 515], the IC50 amounted to 8.71 nM.

For the molecule `O=C1CC[C@@H](CN2C(=O)COc3cc(-c4cccc(-c5cccc(-c6cnc7c(c6)OCC(=O)N7C[C@@H]6CCC(=O)N6)c5Cl)c4Cl)cnc32)N1` [Compound 401], the IC50 turned out to be 9.78 nM.

The molecule `O=C1COc2cc(-c3cccc(-c4cccc(-c5ccc6c(c5)OCC(=O)N6CCn5cccn5)c4Cl)c3Cl)ccc2N1CCn1cccn1` [Compound 375] registered an IC50 of 2710 nM.

Molecule `CC(=O)NCCNCCN1C(=O)COc2cc(-c3cccc(-c4cccc(-c5ccc6c(c5)OCC(=O)N6C[C@@H]5CCCN5)c4Cl)c3Cl)ccc21` [Compound 516] showed an IC50 of 10.5 nM.

`O=C1CC[C@@H](CN2C(=O)COc3cc(-c4cccc(-c5cccc(-c6cc(Cl)c7c(c6)OCC(=O)N7C[C@@H]6CCC(=O)N6)c5Cl)c4Cl)cc(Cl)c32)N1` [Compound 376] returned a half-inhibitory concentration (IC50) of 200 nM.

`O=C1CCCN1CCN1C(=O)COc2cc(-c3cccc(-c4cccc(-c5ccc6c(c5)OCC(=O)N6CCN5CCCC5=O)c4Cl)c3Cl)ccc21` [Compound 394] displayed a 50% inhibitory concentration (IC50) of 471 nM.

As to `CC(=O)N1CCC(N2C(=O)COc3cc(-c4cccc(-c5cccc(-c6ccc7c(c6)OCC(=O)N7C6CCN(C(C)=O)CC6)c5Cl)c4Cl)ccc32)CC1` [Compound 408], the IC50 worked out at 571 nM.

For `CN(CCO)CCN1C(=O)COc2cc(-c3cccc(-c4cccc(-c5ccc6c(c5)OCC(=O)N6CCN(C)CCO)c4Cl)c3Cl)ccc21` [Compound 471], the IC50 came out at 4.7 nM.

With `N#Cc1cncc(CN2C(=O)COc3cc(-c4cccc(-c5cccc(-c6ccc7c(c6)OCC(=O)N7Cc6cncc(C#N)c6)c5Cl)c4Cl)ccc32)c1` [Compound 430], the IC50 was no less than 3000 nM.

The molecule `O=C1CC[C@@H](CN2C(=O)COc3cc(-c4cccc(-c5cccc(-c6cc(F)c7c(c6)OCC(=O)N7C[C@@H]6CCC(=O)N6)c5Cl)c4Cl)cc(F)c32)N1` [Compound 396] yielded a concentration for half-maximal inhibition (IC50) of 11.7 nM.

Take `O=C(O)[C@@H]1C[C@H](O)CN1CCN1C(=O)COc2cc(-c3cccc(-c4cccc(-c5ccc6c(c5)OCC(=O)N6CCN5C[C@@H](O)C[C@H]5C(=O)O)c4Cl)c3Cl)ccc21` [Compound 478]: the IC50 came to 8.76 nM.

On to `O=C(O)CCNCCN1C(=O)COc2cc(-c3cccc(-c4cccc(-c5ccc6c(c5)OCC(=O)N6CCN5CC[C@H](O)C5)c4Cl)c3Cl)ccc21` [Compound 491], for which the IC50 stood at 5.22 nM.

In the case of `CC(=O)NCCNCCN1C(=O)COc2cc(-c3cccc(-c4cccc(-c5ccc6c(c5)OCC(=O)N6CCNCCNC(C)=O)c4Cl)c3Cl)ccc21` [Compound 461], the concentration for half-maximal inhibition (IC50) came out at 4.06 nM.

In the case of `O=C1CC[C@@H](CN2C(=O)COc3nc(-c4cccc(-c5cccc(-c6ccc7c(n6)OCC(=O)N7C[C@@H]6CCC(=O)N6)c5Cl)c4Cl)ccc32)N1` [Compound 457], the 50% inhibitory concentration (IC50) was 8.78 nM.

Molecule `O=C(O)C1CCN(CCN2C(=O)COc3cc(-c4cccc(-c5cccc(-c6ccc7c(c6)OCC(=O)N7CCN6CCC(C(=O)O)C6)c5Cl)c4Cl)ccc32)C1` (stereo not shown) [Compound 469] had an IC50 of 4.02 nM.

In turn, `O=C(O)[C@@H]1C[C@@H](O)CN1CCN1C(=O)COc2cc(-c3cccc(-c4cccc(-c5ccc6c(c5)OCC(=O)N6CCN5C[C@@H](O)C[C@H]5C(=O)O)c4Cl)c3Cl)ccc21` [Compound 482] returned an IC50 of 6.72 nM.

Regarding `O=C1COc2cc(-c3cccc(-c4cccc(-c5ccc6c(c5)OCC(=O)N6Cc5nn[nH]n5)c4Cl)c3Cl)ccc2N1Cc1nn[nH]n1` [Compound 412], the 50% inhibitory concentration (IC50) is no less than 3000 nM.

In turn, `O=C1NCCN1CCN1C(=O)COc2cc(-c3cccc(-c4cccc(-c5ccc6c(c5)OCC(=O)N6CCN5CCNC5=O)c4Cl)c3Cl)ccc21` [Compound 384] returned a half-maximal inhibitory concentration (IC50) of 260 nM.

The molecule `N#Cc1cncc(CCN2C(=O)COc3cc(-c4cccc(-c5cccc(-c6ccc7c(c6)OCC(=O)N7CCc6cncc(C#N)c6)c5Cl)c4Cl)ccc32)c1` [Compound 427] returned an IC50 of 68.7 nM.

`NC(=O)C[C@H](NCCN1C(=O)COc2cc(-c3cccc(-c4cccc(-c5ccc6c(c5)OCC(=O)N6CCN[C@@H](CC(N)=O)C(=O)O)c4Cl)c3Cl)ccc21)C(=O)O` [Compound 570] had an IC50 of 10.9 nM.

`CC1(C)Oc2cc(-c3cccc(-c4cccc(-c5ccc6c(c5)OC(C)(C)C(=O)N6C[C@@H]5CCC(=O)N5)c4Cl)c3Cl)ccc2N(C[C@@H]2CCC(=O)N2)C1=O` [Compound 372]: the IC50 is no less than 3000 nM.

`O=C1CC[C@@H](CN2C(=O)COc3cc(-c4cccc(-c5cccc(-c6ccc7c(c6)OCC(=O)N7CCN6C[C@H](O)C[C@@H]6C(=O)O)c5Cl)c4Cl)ccc32)N1` [Compound 488] came in with a concentration for half-maximal inhibition (IC50) of 6.2 nM.

On to `O=C1COc2cc(-c3cccc(-c4cccc(-c5ccc6c(c5)OCC(=O)N6C[C@@H]5COCCN5)c4Cl)c3Cl)ccc2N1C[C@@H]1CCCCN1` [Compound 559], for which the IC50 was 8.98 nM.

In turn, `O=C(O)C1CCCCN1CCN1C(=O)COc2cc(-c3cccc(-c4cccc(-c5ccc6c(c5)OCC(=O)N6CCN5CCCCC5C(=O)O)c4Cl)c3Cl)ccc21` (stereo not shown) [Compound 513] showed a half-inhibitory concentration (IC50) of 8.23 nM.

Consider `O=C1C[C@@H](NCCN2C(=O)COc3cc(-c4cccc(-c5cccc(-c6ccc7c(c6)OCC(=O)N7CCN[C@H]6COC(=O)C6)c5Cl)c4Cl)ccc32)CO1` [Compound 527], for which the 50% inhibitory concentration (IC50) turned out to be 9.41 nM.

In the case of `O=C1COc2cc(-c3cccc(-c4cccc(-c5ccc6c(c5)OCC(=O)N6CCN5CCNC5=O)c4Cl)c3Cl)ccc2N1` [Compound 385], the IC50 is 264 nM.

In the case of `O=C1CC[C@@H](CN2C(=O)COc3cc(-c4cccc(-c5cccc(-c6ccc7c(c6)OCC(=O)N7CCN6CC[C@H](O)C6)c5Cl)c4Cl)ccc32)N1` [Compound 492], the IC50 amounted to 3.15 nM.

What is called IC50 is the concentration that inhibits the measured activity by half.
